Source: ChEMBL document CHEMBL1201862, “PubChem BioAssay data set” (2004)
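Following 48 hours of exposure in 96-well plates, responses at five concentrations were used to interpolate endpoints linearly. GI50 is the concentration that inhibits growth by half.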 The source made the active and inactive calls. No stated cut-off is given here; in the data, active = GI50 up to about 1.1 µM and inactive = higher.

How the values were obtained:
Test in all cases: NCI anticancer screen, dose series, 48 h
786-0 = system: 786-0
CCRF-CEM = system: CCRF-CEM
DU-145 = system: DU-145
HCC 2998 = system: HCC 2998
HOP-92 = system: HOP-92
KM12 = system: KM12
M14 = system: M14
MDA-MB-435 = system: MDA-MB-435
MOLT-4 = system: MOLT-4
NCI-H226 = system: NCI-H226
OVCAR-3 = system: OVCAR-3
SF-268 = system: SF-268
SF-295 = system: SF-295
SK-MEL-28 = system: SK-MEL-28
SK-MEL-2 = system: SK-MEL-2
SNB-19 = system: SNB-19
TK-10 = system: TK-10
UO-31 = system: UO-31
SNB-75 = system: SNB-75
T47D = system: T47D

| Structure (SMILES) | GI50 (786-0) | GI50 (CCRF-CEM) | GI50 (DU-145) | GI50 (HCC 2998) | GI50 (HOP-92) | GI50 (KM12) | GI50 (M14) | GI50 (MDA-MB-435) | GI50 (MOLT-4) | GI50 (NCI-H226) | GI50 (OVCAR-3) | GI50 (SF-268) | GI50 (SF-295) | GI50 (SK-MEL-28) | GI50 (SK-MEL-2) | GI50 (SNB-19) | GI50 (TK-10) | GI50 (UO-31) | GI50 (SNB-75) | GI50 (T47D) |
| --- | --- | --- | --- | --- | --- | --- | --- | --- | --- | --- | --- | --- | --- | --- | --- | --- | --- | --- | --- | --- |
| C/N=C(\N)N/N=C(\C)c1ccc2oc3ccc(/C(C)=N/N/C(N)=N/C)cc3c2c1 | 2.86 µM (inactive) | 2.39 µM (inactive) | 2.35 µM (inactive) | 2 µM (inactive) | 2.07 µM (inactive) | 3.16 µM (inactive) | 3.24 µM (inactive) | 2.92 µM (inactive) | 0.805 µM (active) | 2.08 µM (inactive) | 2.64 µM (inactive) | 2.09 µM (inactive) | 3.85 µM (inactive) | 3.93 µM (inactive) | 2 µM (inactive) | 2.11 µM (inactive) | 4.38 µM (inactive) | 6.31 µM (inactive) | – | – |
| C/C(=N\NC(N)=S)c1ccc2c(c1)OCO2 | > 100 µM (inactive) | 56.8 µM (inactive) | – | > 100 µM (inactive) | > 100 µM (inactive) | > 100 µM (inactive) | > 100 µM (inactive) | – | > 100 µM (inactive) | > 100 µM (inactive) | > 100 µM (inactive) | > 100 µM (inactive) | > 100 µM (inactive) | > 100 µM (inactive) | > 100 µM (inactive) | > 100 µM (inactive) | > 100 µM (inactive) | 76.2 µM (inactive) | > 100 µM (inactive) | – |
| Cc1nc(Cc2n[nH]c(C)n2)n[nH]1 | > 100 µM (inactive) | > 100 µM (inactive) | > 100 µM (inactive) | > 100 µM (inactive) | > 100 µM (inactive) | > 100 µM (inactive) | > 100 µM (inactive) | > 100 µM (inactive) | > 100 µM (inactive) | – | > 100 µM (inactive) | > 100 µM (inactive) | > 100 µM (inactive) | – | > 100 µM (inactive) | > 100 µM (inactive) | > 100 µM (inactive) | > 100 µM (inactive) | > 100 µM (inactive) | – |
| CC(=O)N1CCC2(c3ccccc3N(C(C)=O)C2c2ccc(O)cc2)C1C(=O)O (stereo not given) | > 100 µM (inactive) | > 100 µM (inactive) | – | > 100 µM (inactive) | > 100 µM (inactive) | > 100 µM (inactive) | > 100 µM (inactive) | – | > 100 µM (inactive) | > 100 µM (inactive) | > 100 µM (inactive) | > 100 µM (inactive) | > 100 µM (inactive) | > 100 µM (inactive) | > 100 µM (inactive) | > 100 µM (inactive) | > 100 µM (inactive) | > 100 µM (inactive) | > 100 µM (inactive) | – |
| COc1cc(C(SCc2ccccc2)SCc2ccccc2)ccc1O | > 10 µM (inactive) | > 10 µM (inactive) | > 10 µM (inactive) | > 10 µM (inactive) | > 10 µM (inactive) | > 10 µM (inactive) | > 10 µM (inactive) | – | 9.33 µM (inactive) | > 10 µM (inactive) | > 10 µM (inactive) | > 10 µM (inactive) | > 10 µM (inactive) | > 10 µM (inactive) | > 10 µM (inactive) | > 10 µM (inactive) | > 10 µM (inactive) | 7.06 µM (inactive) | > 10 µM (inactive) | 8.97 µM (inactive) |
| C=CCOCn1ccc(=O)[nH]c1=O | > 100 µM (inactive) | > 100 µM (inactive) | > 100 µM (inactive) | > 100 µM (inactive) | – | > 100 µM (inactive) | > 100 µM (inactive) | > 100 µM (inactive) | > 100 µM (inactive) | > 100 µM (inactive) | – | > 100 µM (inactive) | > 100 µM (inactive) | > 100 µM (inactive) | – | > 100 µM (inactive) | > 100 µM (inactive) | > 100 µM (inactive) | > 100 µM (inactive) | > 100 µM (inactive) |
| CCN(CC)C(=C(C(Cl)=C(Cl)Cl)[N+](=O)[O-])N(CC)CC | > 100 µM (inactive) | 30.6 µM (inactive) | 62.4 µM (inactive) | > 100 µM (inactive) | – | > 100 µM (inactive) | 92 µM (inactive) | – | 27.2 µM (inactive) | > 100 µM (inactive) | 37.5 µM (inactive) | 41 µM (inactive) | > 100 µM (inactive) | 49.1 µM (inactive) | – | 29.6 µM (inactive) | > 100 µM (inactive) | 30.2 µM (inactive) | 22.3 µM (inactive) | 61.8 µM (inactive) |
| CCCCCCCCCCCC(=O)C1=C(O)CC(O)CC1=O (stereo not given) | > 100 µM (inactive) | 62.2 µM (inactive) | – | > 100 µM (inactive) | > 100 µM (inactive) | 59.4 µM (inactive) | > 100 µM (inactive) | – | 88.1 µM (inactive) | 68.7 µM (inactive) | 82.6 µM (inactive) | > 100 µM (inactive) | 84.1 µM (inactive) | > 100 µM (inactive) | > 100 µM (inactive) | > 100 µM (inactive) | > 100 µM (inactive) | 64.4 µM (inactive) | > 100 µM (inactive) | – |
| N#CCOc1cccc(C2(N3CC=CCC3)CCCCC2)c1 | > 100 µM (inactive) | 42.3 µM (inactive) | > 100 µM (inactive) | – | – | > 100 µM (inactive) | > 100 µM (inactive) | > 100 µM (inactive) | 56.6 µM (inactive) | > 100 µM (inactive) | > 100 µM (inactive) | > 100 µM (inactive) | > 100 µM (inactive) | > 100 µM (inactive) | > 100 µM (inactive) | > 100 µM (inactive) | > 100 µM (inactive) | > 100 µM (inactive) | – | > 100 µM (inactive) |
| C[n+]1ccccc1/C=C/c1ccc2c(c1)OCO2 | > 10 µM (inactive) | > 10 µM (inactive) | > 10 µM (inactive) | > 10 µM (inactive) | – | > 10 µM (inactive) | > 10 µM (inactive) | > 10 µM (inactive) | > 10 µM (inactive) | > 10 µM (inactive) | > 10 µM (inactive) | > 10 µM (inactive) | > 10 µM (inactive) | > 10 µM (inactive) | > 10 µM (inactive) | > 10 µM (inactive) | > 10 µM (inactive) | – | – | > 10 µM (inactive) |
| COc1ccc2c3c1C(=O)CCCC3CO2 (stereo not given) | > 100 µM (inactive) | > 100 µM (inactive) | – | > 100 µM (inactive) | > 100 µM (inactive) | > 100 µM (inactive) | > 100 µM (inactive) | – | > 100 µM (inactive) | > 100 µM (inactive) | > 100 µM (inactive) | > 100 µM (inactive) | > 100 µM (inactive) | > 100 µM (inactive) | > 100 µM (inactive) | > 100 µM (inactive) | > 100 µM (inactive) | > 100 µM (inactive) | > 100 µM (inactive) | – |
| Cc1ccccc1Nc1cn(CCOc2ccccc2)c(=O)n(CCOc2ccccc2)c1=O | > 100 µM (inactive) | > 100 µM (inactive) | > 100 µM (inactive) | > 100 µM (inactive) | 19 µM (inactive) | > 100 µM (inactive) | > 100 µM (inactive) | > 100 µM (inactive) | > 100 µM (inactive) | – | > 100 µM (inactive) | > 100 µM (inactive) | > 100 µM (inactive) | > 100 µM (inactive) | – | > 10 µM (inactive) | – | > 100 µM (inactive) | – | – |
| CN(C)c1ccc(/C=c2/sc3nc(=O)c(-c4ccccc4NC(=O)C(F)(F)F)nn3c2=O)cc1 | > 100 µM (inactive) | > 100 µM (inactive) | – | > 100 µM (inactive) | 77.4 µM (inactive) | > 100 µM (inactive) | > 100 µM (inactive) | – | > 100 µM (inactive) | 26.4 µM (inactive) | > 100 µM (inactive) | > 100 µM (inactive) | > 100 µM (inactive) | > 100 µM (inactive) | > 100 µM (inactive) | > 100 µM (inactive) | > 100 µM (inactive) | 50 µM (inactive) | > 100 µM (inactive) | – |
| CCOC(=O)Cc1nnc2c(-c3ccccc3)nc3ccccc3n12 | > 100 µM (inactive) | > 100 µM (inactive) | 33 µM (inactive) | 15.7 µM (inactive) | 41.6 µM (inactive) | > 100 µM (inactive) | > 100 µM (inactive) | > 100 µM (inactive) | > 100 µM (inactive) | > 100 µM (inactive) | 14.6 µM (inactive) | 20.6 µM (inactive) | – | > 100 µM (inactive) | 28.1 µM (inactive) | 24.8 µM (inactive) | 31.2 µM (inactive) | 71 µM (inactive) | – | – |
| O=C1c2ccccc2C(=O)c2c(NCC3CO3)cccc21 (stereo not given) | 12.2 µM (inactive) | 1.43 µM (inactive) | – | > 100 µM (inactive) | 94.4 µM (inactive) | 18.6 µM (inactive) | 11.3 µM (inactive) | 7.59 µM (inactive) | 3.77 µM (inactive) | > 100 µM (inactive) | 15.4 µM (inactive) | 7.5 µM (inactive) | 26.5 µM (inactive) | > 41.7 µM (inactive) | 17.2 µM (inactive) | > 57.3 µM (inactive) | 40.9 µM (inactive) | 8.05 µM (inactive) | > 100 µM (inactive) | > 100 µM (inactive) |
| CC[C@H](C)[C@H](NC(=O)[C@@]1(O)[C@H](O)[C@]2(CC)C=CCN3CC[C@@]4(c5cc(Br)c(OC)cc5N(C)[C@@H]14)[C@@H]32)C(=O)OC | 63.5 µM (inactive) | 27.8 µM (inactive) | > 100 µM (inactive) | 23.8 µM (inactive) | – | 27.2 µM (inactive) | 22.1 µM (inactive) | 20.5 µM (inactive) | 22.8 µM (inactive) | – | 20.7 µM (inactive) | 27.7 µM (inactive) | 33.8 µM (inactive) | 13.2 µM (inactive) | 26.2 µM (inactive) | 64.3 µM (inactive) | 38.3 µM (inactive) | 44.4 µM (inactive) | – | 52.4 µM (inactive) |
